Here are results for eight compounds from patent publication US20130267516A1, “SUBSTITUTED CYCLOPENTYL-AZINES AS CASR-ACTIVE COMPOUNDS” (LEO PHARMA A/S, priority 2010, published 2013).

The nature of series [1]: Clearance in human liver microsomes. It counts as in vitro ADME. The note with it: hepatic extraction ratio; 0.5 μM compound, 0.5 mg/mL microsomes, 1 mM NADPH, 30 min. As for the experimental part:
Test compound concentration is 0.5 μM, microsome concentration is 0.5 mg/mL and NADPH concentration is 1 mM in the incubation. The described method is performed by the liquid handling system Tecan RSP and is based on a 96-well format.
Control incubations with test compound without NADPH and test compound without microsomes are conducted to investigate non-CYP mediated metabolism and stability in phosphate buffer at 37° C., respectively.
The human liver microsomal suspension in phosphate buffer is mixed with NADPH. The mixture is pre-heated (7 min) to 37° C. Test compound is added, and the mixture is incubated for 30 minutes. Incubations are run in duplicate. Samples are withdrawn at predetermined stop times and mixed with methanol containing internal standard (IS) to terminate all enzyme activity and precipitate proteins. A control without NADPH (to detect problems such as nonspecific protein binding, heat instability or non-CYP mediated metabolism) and a control without microsomes (for assessing compound stability in the absence of any active enzymes) are tested.
(§1) The percentage of organic solvent in the incubations is less than 1%. Careful inspections of reagents are performed prior to the start of any experiment to ensure all reagents are in solution.
(§2) The 96-well plates are centrifuged. Test compound depletion, using a compound specific LC/MS/MS method, is determined.
The logarithm of the peak area ratios of test compound to internal standard (IS) versus incubation time is plotted in a graph.
The rate constant (k) (min^−1) of test compound depletion is calculated from the linear part of the curve and the half-time (t1/2) in minutes can be calculated from the rate constant (Eq. 2).
Intrinsic clearance (Clint) (mL/min/mg protein) is calculated from: […]
where c is the microsomal protein concentration in mg/mL.
Intrinsic clearance is the maximum ability of the liver to extract a drug in the absence of blood flow restrictions.
Conversion to apparent clearance (Clapp) (mL/min/kg) is done by Eq. 4:
Clapp=Clint×a×b/d (Eq. 4)
where a, b and d are the scaling factors for normalizing Clint to human body weight.
The following human scaling factors are used:
a: 45 (microsomal protein/liver weight (mg/g)) b: 1500 (liver weight (g)) d: 70 (body weight (kg))
Hepatic clearance (Clh) (mL/min/kg) based on the well-stirred model is described as followed:
Clh=(Clapp·Q)/(Clapp+Q) (Eq. 5)
where Q is the liver blood flow in mL/min/kg (20 in humans).
Dividing hepatic clearance with liver blood flow, the hepatic extraction ratio (%) can be calculated:
Apparent clearance below approximately 10 mL/min/kg human body weight (corresponding to extraction ratio of approx. 33%) is considered as low clearance (high metabolic stability). Apparent intrinsic clearance above approximately 60 mL/min/kg human body weight (corresponding to extraction ratio of approx. 75%) is considered as high clearance (low metabolic stability).
(In general: Liver microsomes are a subcellular fraction often used to study metabolism.)

The nature of series [2]: Clearance in rat hepatocytes. It counts as in vitro ADME. The note with it: hepatic extraction ratio; 0.5 μM compound, 1×10^6 cells/mL, 20 min. On the procedure: Test compounds and 4 control compounds are tested in duplicate per run. Test compound concentration is 0.5 μM and cell concentration is 1×10^6 cells/mL in the incubation. The described method is performed by the liquid handling system Tecan RSP and is based on a 96-well format.
The liver is collected from a male Spraque-Dawley rat. One liver lobe is cut off and flushed with various buffers to loosen the cells. The cell suspension is washed and centrifuged, and the cell density is adjusted to 1.2×10^6 cells/mL with Krebs-Henseleit buffer, pH 7.4, containing 0.2% bovine serum albumin (BSA). Only cell suspensions with viability above 80% are used.
The cell suspension is pre-heated (20 min) to 37° C. Test compound is added, and the mixture is incubated for 20 minutes. Incubations are run in duplicate. Samples are withdrawn at predetermined stop times and mixed with methanol containing internal standard (IS) to terminate all enzyme activity and precipitate proteins.
as §1, §2
Data analysis is performed as described above in the section “Biological assay for analysis of clearance in human liver microsomes”, with the following modifications:
Intrinsic clearance (Clint) (mL/min/10^6 cells) is calculated from: […]
where c is the cell concentration in 10^6 cells/mL.
The following scaling factors for rat are used for eq. 4:
a: 120 (cells/liver weight (10^6 cells/g)) b: 10 (liver weight (g)) d: 0.25 (body weight (kg))
Liver blood flow in rats (for eq. 5):
Apparent clearance below approximately 25 mL/min/kg rat body weight (corresponding to an extraction ratio of approx. 33%) is considered as low clearance (high metabolic stability). Apparent intrinsic clearance above approximately 165 mL/min/kg rat body weight (corresponding to an extraction ratio of approx. 75%) is considered as high clearance (low metabolic stability).

In the case of `C[C@@H](N[C@H]1CC[C@@H](c2ccc(NCCNCCO)nc2)C1)c1cccc2ccccc12.O=CO.O=CO.O=CO` [Compound 101, 2-[2-[[5-[(1R,3S)-3-[[(1R)-1-(1-Naphthyl)ethyl]amino]cyclopentyl]-2-pyridyl]amino]ethylamino]ethanol], the “Clearance (% Eh) in human liver microsomes” value in series [1] was “A (A: Eh < 33%)”. Moreover, in series [2], the “Clearance (% Eh) in rat hepatocytes” value is recorded as “B (B: 33% ≦ Eh ≦ 75%)”.

Take `COc1cc([C@@H](C)N[C@H]2CC[C@@H](c3ccc(NC4CCNCC4)nc3)C2)ccc1F` [Compound 107, 5-[(1R,3S)-3-[[(1R)-1-(4-Fluoro-3-methoxy-phenyl)ethyl]amino]cyclopentyl]-N-(4-piperidyl)pyridin-2-amine]: the “Clearance (% Eh) in human liver microsomes” value in series [1] was “A (A: Eh < 33%)”. Besides, in series [2], the “Clearance (% Eh) in rat hepatocytes” value is given as “A (A: Eh < 33%)”.

On to `COc1cc([C@@H](C)N[C@H]2CC[C@@H](c3ccc(N4CCNC(=O)C4)nc3)C2)ccc1F` [Compound 109, 4-[5-[(1R,3S)-3-[[(1R)-1-(4-Fluoro-3-methoxy-phenyl)ethyl]amino]cyclopentyl]-2-pyridyl]piperazin-2-one], for which the “Clearance (% Eh) in human liver microsomes” value in series [1] was “A (A: Eh < 33%)”. In addition, in series [2], the “Clearance (% Eh) in rat hepatocytes” value is reported as “A (A: Eh < 33%)”.

In the case of `COc1cc([C@@H](C)N[C@H]2CC[C@@H](c3ccc(NCCS(N)(=O)=O)nc3)C2)ccc1F` [Compound 113, 2-[[5-[(1R,3S)-3-[[(1R)-1-(4-Fluoro-3-methoxyphenyl)ethyl]amino]cyclopentyl]-2-pyridyl]amino]ethanesulfonamide], the “Clearance (% Eh) in human liver microsomes” value in series [1] is “A (A: Eh < 33%)”. Also, the “Clearance (% Eh) in rat hepatocytes” value in series [2] is on record as “A (A: Eh < 33%)”.

For the compound `COc1cc([C@@H](C)N[C@H]2CC[C@@H](c3ccc(NCC(O)CO)nc3)C2)ccc1F` (stereo partly drawn) [Compound 115, 3-[[5-[(1R,3S)-3-[[(1R)-1-(4-Fluoro-3-methoxyphenyl)ethyl]amino]cyclopentyl]-2-pyridyl]amino]propane-1,2-diol], the “Clearance (% Eh) in human liver microsomes” value in series [1] is “A (A: Eh < 33%)”. For the same compound, the “Clearance (% Eh) in rat hepatocytes” value in series [2] is “A (A: Eh < 33%)”.

For `COc1cc([C@@H](C)N[C@H]2CC[C@@H](c3ccc(N4CCN(C(C)=O)CC4)nc3)C2)ccc1F` [Compound 116, 1-[4-[5-[(1R,3S)-3-[[(1R)-1-(4-Fluoro-3-methoxyphenyl)ethyl]amino]cyclopentyl]-2-pyridyl]piperazin-1-yl]ethanone], the “Clearance (% Eh) in human liver microsomes” value in series [1] is on record as “A (A: Eh < 33%)”. Further, the “Clearance (% Eh) in rat hepatocytes” value in series [2] is reported as “A (A: Eh < 33%)”.

Regarding `COc1cc([C@@H](C)N[C@H]2CC[C@@H](c3cnc(N4CCNC(=O)C4)nc3)C2)ccc1F` [Compound 126, 4-[5-[(1R,3S)-3-[[(1R)-1-(4-Fluoro-3-methoxy-phenyl)ethyl]amino]cyclopentyl]pyrimidin-2-yl]piperazin-2-one], the “Clearance (% Eh) in human liver microsomes” value in series [1] is “A (A: Eh < 33%)”. In addition, the “Clearance (% Eh) in rat hepatocytes” value in series [2] is listed as “B (B: 33% ≦ Eh ≦ 75%)”.

For the compound `COc1cc([C@@H](C)N[C@H]2CC[C@@H](c3cnc(N4CCN(C(C)=O)CC4)nc3)C2)ccc1F.O=CO` [Compound 127, 1-[4-[5-[(1R,3S)-3-[[(1R)-1-(4-Fluoro-3-methoxy-phenyl)ethyl]amino]cyclopentyl]pyrimidin-2-yl]piperazin-1-yl]ethanone], the “Clearance (% Eh) in human liver microsomes” value in series [1] was “A (A: Eh < 33%)”. Besides, the “Clearance (% Eh) in rat hepatocytes” value in series [2] is “A (A: Eh < 33%)”.
